Measured values as given in ChEMBL document CHEMBL1201862, “PubChem BioAssay data set” (2004).
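Cells were grown in 96-well plates and exposed to each compound for 48 hours at five concentrations; endpoints were interpolated linearly between bracketing concentrations, or set to the highest concentration if not reached. GI50 is the concentration that inhibits growth by half.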 Active and inactive are the calls of the source. Cut-off read from the data, not from the text of the source: active = GI50 up to about 1.1 µM and inactive = higher.

Key:
Assay in all cases: NCI tumour cell line growth inhibition, 48 h
CCRF-CEM = system: CCRF-CEM
COLO 205 = system: COLO 205
HOP-92 = system: HOP-92
IGROV-1 = system: IGROV-1
K562 = system: K562
MDA-MB-231 = system: MDA-MB-231
MDA-MB-435 = system: MDA-MB-435
NCI-H23 = system: NCI-H23
OVCAR-3 = system: OVCAR-3
OVCAR-8 = system: OVCAR-8
PC-3 = system: PC-3
RXF 393 = system: RXF 393
SF-268 = system: SF-268
SK-MEL-5 = system: SK-MEL-5
SN12C = system: SN12C
SNB-19 = system: SNB-19
SNB-75 = system: SNB-75
HCC 2998 = system: HCC 2998

Row | SMILES | GI50 (CCRF-CEM) | GI50 (COLO 205) | GI50 (HOP-92) | GI50 (IGROV-1) | GI50 (K562) | GI50 (MDA-MB-231) | GI50 (MDA-MB-435) | GI50 (NCI-H23) | GI50 (OVCAR-3) | GI50 (OVCAR-8) | GI50 (PC-3) | GI50 (RXF 393) | GI50 (SF-268) | GI50 (SK-MEL-5) | GI50 (SN12C) | GI50 (SNB-19) | GI50 (SNB-75) | GI50 (HCC 2998)
1 | Nc1[nH]nc2ccccc12 | > 100 µM (inactive) | > 100 µM (inactive) | > 100 µM (inactive) | > 100 µM (inactive) | 28.5 µM (inactive) | > 100 µM (inactive) | > 100 µM (inactive) | > 100 µM (inactive) | > 100 µM (inactive) | > 100 µM (inactive) | > 100 µM (inactive) | > 100 µM (inactive) | > 100 µM (inactive) | > 100 µM (inactive) | > 100 µM (inactive) | > 100 µM (inactive) | > 100 µM (inactive) | –
2 | Nc1ccc(Oc2ccc(C34CC5C6CC7(c8ccc(Oc9ccc(N)cc9)cc8)CC5C(C3)C(C7)C6C4)cc2)cc1 | > 100 µM (inactive) | > 100 µM (inactive) | > 100 µM (inactive) | > 100 µM (inactive) | > 100 µM (inactive) | > 100 µM (inactive) | > 100 µM (inactive) | > 100 µM (inactive) | > 100 µM (inactive) | > 100 µM (inactive) | > 100 µM (inactive) | > 100 µM (inactive) | > 100 µM (inactive) | > 100 µM (inactive) | > 100 µM (inactive) | > 100 µM (inactive) | – | –
3 | CCOC(=O)CC(=O)NC1CC2CCC1(C)C2(C)C (stereo not drawn) | > 100 µM (inactive) | > 100 µM (inactive) | – | > 100 µM (inactive) | > 100 µM (inactive) | > 100 µM (inactive) | > 100 µM (inactive) | > 100 µM (inactive) | > 100 µM (inactive) | > 100 µM (inactive) | > 100 µM (inactive) | > 100 µM (inactive) | > 100 µM (inactive) | > 100 µM (inactive) | > 100 µM (inactive) | > 100 µM (inactive) | > 100 µM (inactive) | > 100 µM (inactive)
4 | CC[n+]1[b-](C(C)(C)C)n(/N=C(\C)C(C)(C)C)[b-](C(C)(C)C)[n+]1CC | > 100 µM (inactive) | – | – | > 100 µM (inactive) | 71.8 µM (inactive) | > 100 µM (inactive) | > 100 µM (inactive) | > 100 µM (inactive) | > 100 µM (inactive) | > 100 µM (inactive) | > 100 µM (inactive) | > 100 µM (inactive) | > 100 µM (inactive) | > 100 µM (inactive) | > 100 µM (inactive) | > 100 µM (inactive) | > 100 µM (inactive) | > 100 µM (inactive)
5 | COC(=O)NC1(NC(=O)OC)NC(=O)c2cc(OC)c(OC)c(OC)c2N1 | 82 µM (inactive) | 18.7 µM (inactive) | – | 53.1 µM (inactive) | 12.3 µM (inactive) | 36.2 µM (inactive) | – | 32.7 µM (inactive) | 54.1 µM (inactive) | 64.4 µM (inactive) | 12.4 µM (inactive) | – | 28.1 µM (inactive) | 11 µM (inactive) | 41.6 µM (inactive) | 44.9 µM (inactive) | 13.7 µM (inactive) | 9.14 µM (inactive)
6 | Cc1ccc(NNc2cc(=O)[nH]c(=O)[nH]2)cc1Cl | 11.1 µM (inactive) | 16.6 µM (inactive) | 14.4 µM (inactive) | 13.8 µM (inactive) | 2.99 µM (inactive) | 15.8 µM (inactive) | – | 16.8 µM (inactive) | 14.8 µM (inactive) | – | 22.3 µM (inactive) | 16.5 µM (inactive) | 43.2 µM (inactive) | 73.5 µM (inactive) | > 100 µM (inactive) | 24.4 µM (inactive) | > 100 µM (inactive) | 15.7 µM (inactive)
7 | O=C1N[C@@H](COc2ccc(/C=N/c3ccc(CCc4ccc(/N=C/c5ccc(OC[C@@H]6COC(=O)N6)cc5)cc4)cc3)cc2)CO1 | – | > 100 µM (inactive) | – | > 100 µM (inactive) | > 100 µM (inactive) | > 100 µM (inactive) | > 100 µM (inactive) | – | > 100 µM (inactive) | > 100 µM (inactive) | > 100 µM (inactive) | > 100 µM (inactive) | > 100 µM (inactive) | > 100 µM (inactive) | > 100 µM (inactive) | > 100 µM (inactive) | – | –
8 | COc1ccc(OC)c(CNc2ccc(C(=O)O)cc2)c1 | > 100 µM (inactive) | > 100 µM (inactive) | > 100 µM (inactive) | > 100 µM (inactive) | > 100 µM (inactive) | > 100 µM (inactive) | > 100 µM (inactive) | > 100 µM (inactive) | > 100 µM (inactive) | > 100 µM (inactive) | > 100 µM (inactive) | – | > 100 µM (inactive) | > 100 µM (inactive) | – | > 100 µM (inactive) | > 100 µM (inactive) | > 100 µM (inactive)
9 | CC1CC(C#N)=C2NCCN2C1=O (stereo not drawn) | > 100 µM (inactive) | 22.1 µM (inactive) | – | > 100 µM (inactive) | > 100 µM (inactive) | > 100 µM (inactive) | 18.3 µM (inactive) | > 100 µM (inactive) | > 100 µM (inactive) | > 100 µM (inactive) | > 100 µM (inactive) | > 100 µM (inactive) | > 100 µM (inactive) | 15.2 µM (inactive) | > 100 µM (inactive) | > 100 µM (inactive) | > 100 µM (inactive) | > 100 µM (inactive)
10 | C=CCCON(C(=O)OC(C)(C)C)C(C)(C)C | > 100 µM (inactive) | > 100 µM (inactive) | > 100 µM (inactive) | > 100 µM (inactive) | > 100 µM (inactive) | > 100 µM (inactive) | > 100 µM (inactive) | > 100 µM (inactive) | > 100 µM (inactive) | > 100 µM (inactive) | > 100 µM (inactive) | > 100 µM (inactive) | > 100 µM (inactive) | > 100 µM (inactive) | > 100 µM (inactive) | > 100 µM (inactive) | > 100 µM (inactive) | –
11 | Cc1ccc(/N=C/C=C(\Nc2ccc(C)cc2)c2ccc3ccccc3c2)cc1 | 0.189 µM (active) | 0.571 µM (active) | 10.6 µM (inactive) | 0.541 µM (active) | 0.414 µM (active) | 0.388 µM (active) | 0.203 µM (active) | 0.585 µM (active) | 0.364 µM (active) | > 100 µM (inactive) | 1.02 µM (active) | 0.521 µM (active) | 2.19 µM (inactive) | 0.482 µM (active) | – | 1.68 µM (inactive) | 0.468 µM (active) | –
12 | C[N+](C)(C)C1=NNC2=Nc3ccccc3SC2=C1 | 11.7 µM (inactive) | 15 µM (inactive) | 12.1 µM (inactive) | 17 µM (inactive) | 17.9 µM (inactive) | 14.6 µM (inactive) | 22.2 µM (inactive) | 28.9 µM (inactive) | 19.3 µM (inactive) | 18.4 µM (inactive) | 15.1 µM (inactive) | 20.4 µM (inactive) | 35 µM (inactive) | 15.1 µM (inactive) | 21.9 µM (inactive) | 26.5 µM (inactive) | – | 24.4 µM (inactive)
13 | c1ccc2c(c1)[nH]c1nc3cc(-c4ccc5nc6c(nc5c4)[nH]c4ccccc46)ccc3nc12 | 12.9 µM (inactive) | – | – | > 100 µM (inactive) | – | > 34.5 µM (inactive) | > 100 µM (inactive) | > 59 µM (inactive) | – | > 100 µM (inactive) | > 100 µM (inactive) | > 100 µM (inactive) | > 100 µM (inactive) | 54.1 µM (inactive) | > 100 µM (inactive) | > 100 µM (inactive) | > 100 µM (inactive) | > 79.1 µM (inactive)
14 | O=C1/C(=C/c2ccccc2)N=C(c2ccccc2)N1C1Nc2cc3c(cc2S1)NC(N1C(=O)/C(=C/c2ccccc2)N=C1c1ccccc1)S3 (stereo not drawn) | 31.7 µM (inactive) | – | 2.31 µM (inactive) | 6.98 µM (inactive) | 10 µM (inactive) | 1.82 µM (inactive) | 13.6 µM (inactive) | 4.9 µM (inactive) | 37.1 µM (inactive) | 4.33 µM (inactive) | 11.8 µM (inactive) | 18.4 µM (inactive) | 5.61 µM (inactive) | 30.3 µM (inactive) | – | – | – | 2.04 µM (inactive)
15 | CC1CC/C(=C\c2ccc(Cl)cc2)c2nc(N)c(C#N)c(-c3ccc(Cl)cc3)c21 (stereo not drawn) | 23.5 µM (inactive) | 41.4 µM (inactive) | – | 62.8 µM (inactive) | 31.5 µM (inactive) | > 100 µM (inactive) | 23.9 µM (inactive) | 30.3 µM (inactive) | 47.1 µM (inactive) | 63.2 µM (inactive) | 13.8 µM (inactive) | – | – | 41.8 µM (inactive) | > 100 µM (inactive) | 29.9 µM (inactive) | 67 µM (inactive) | 26.1 µM (inactive)
16 | CCC1(CC)C(=O)N(C(=O)c2ccc(C)cc2)N(C(=O)c2ccc(C)cc2)C1=O | 33.1 µM (inactive) | > 75 µM (inactive) | – | 48.9 µM (inactive) | 40 µM (inactive) | > 75 µM (inactive) | > 75 µM (inactive) | 27.2 µM (inactive) | 17.7 µM (inactive) | > 75 µM (inactive) | 59.6 µM (inactive) | > 75 µM (inactive) | 27.7 µM (inactive) | > 75 µM (inactive) | 54.2 µM (inactive) | > 75 µM (inactive) | 14.4 µM (inactive) | > 75 µM (inactive)
17 | NC(Cc1cc(I)c(Oc2ccc(O)c(I)c2)c(I)c1)C(=O)O (stereo not drawn) [RATHYRONINE] | – | > 100 µM (inactive) | 82.4 µM (inactive) | 73.1 µM (inactive) | – | 29.3 µM (inactive) | > 100 µM (inactive) | > 100 µM (inactive) | > 100 µM (inactive) | > 100 µM (inactive) | > 100 µM (inactive) | > 100 µM (inactive) | 42.6 µM (inactive) | 37.6 µM (inactive) | > 100 µM (inactive) | 80.9 µM (inactive) | 54.3 µM (inactive) | –
